# “And” between values parts separate entries of the source, which are not always exact repeats. Identical values can stand only once.
# How the values were obtained:
# COX-1 = COX-1 (Homo sapiens, UniProt P23219); assay: biochemical
# COX-1, sequence (P23219 24-599): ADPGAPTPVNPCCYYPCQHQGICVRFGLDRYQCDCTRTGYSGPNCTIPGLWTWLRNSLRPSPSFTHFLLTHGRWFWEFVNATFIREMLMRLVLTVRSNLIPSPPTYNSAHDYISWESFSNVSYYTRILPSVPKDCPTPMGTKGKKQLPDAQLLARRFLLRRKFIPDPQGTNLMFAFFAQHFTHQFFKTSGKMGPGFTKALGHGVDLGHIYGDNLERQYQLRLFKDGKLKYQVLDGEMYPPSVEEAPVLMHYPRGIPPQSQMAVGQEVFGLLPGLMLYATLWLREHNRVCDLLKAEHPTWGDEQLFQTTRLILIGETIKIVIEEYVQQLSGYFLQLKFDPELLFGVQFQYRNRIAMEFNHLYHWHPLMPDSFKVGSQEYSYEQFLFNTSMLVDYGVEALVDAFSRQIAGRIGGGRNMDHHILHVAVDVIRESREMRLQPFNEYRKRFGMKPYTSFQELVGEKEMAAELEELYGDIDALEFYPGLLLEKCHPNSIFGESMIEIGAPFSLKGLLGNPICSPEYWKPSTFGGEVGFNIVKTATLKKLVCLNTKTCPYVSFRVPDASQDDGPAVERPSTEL
# Description: Evaluation of COX-1 and COX-2 Activity In Vitro
# b. Assay for COX-1 and COX-2 Activity
# COX activity was assayed as PGE2 formed/μg protein/time using an ELISA to detect the prostaglandin released. CHAPS-solubilized insect cell membranes containing the appropriate COX enzyme were incubated in a potassium phosphate buffer (50 mM, pH 8.0) containing epinephrine, phenol, and heme with the addition of arachidonic acid (10 μM). Compounds were pre-incubated with the enzyme for 10-20 minutes prior to the addition of arachidonic acid. […] The PGE2 formed was measured by standard ELISA technology (Cayman Chemical).
Compound,melting point [°C],IC50 (COX-1)
"CCc1ccc(Oc2cc3c(cc2Cl)C=C(C(=O)O)[C@H](C(F)(F)F)O3)cc1 (single isomer, unassigned) [Example 931]",130 to 131,–
"CCc1ccc(Oc2cc3c(cc2Cl)C=C(C(=O)O)[C@@H](C(F)(F)F)O3)cc1 (single isomer, unassigned) [Example 939]",90 to 95,–
"O=C(O)C1=Cc2cccc(OCc3ccccc3)c2OC1C(F)(F)F (stereo not drawn) [Example 25g, 8-(benzyloxy)-2-(trifluoromethyl)-2H-chromene-3-carboxylic acid]",–,> 100 µM and 80.7 µM
"O=C(O)C1=Cc2cccc(OCc3ccoc3)c2OC1C(F)(F)F (stereo not drawn) [Example 25h, 8-(3-furylmethoxy)-2-(trifluoromethyl)-2H-chromene-3-carboxylic acid]",–,> 100 µM and 72.3 µM
"CCOc1cc(Br)cc2c1OC(C(F)(F)F)C(C(=O)O)=C2 (stereo not drawn) [Example 26, 6-bromo-8-ethoxy-2-(trifluoromethyl)-2H-chromene-3-carboxylic acid]",–,> 100 µM
"CCOc1c(Cl)c(Br)c(Cl)c2c1OC(C(F)(F)F)C(C(=O)O)=C2 (stereo not drawn) [Example 27, 6-bromo-5,7-dichloro-8-ethoxy-2-(trifluoromethyl)-2H-chromene-3-carboxylic acid]",–,> 100 µM and 198 µM
"CCCOc1c(Cl)c(Cl)c(Cl)c2c1OC(C(F)(F)F)C(C(=O)O)=C2 (stereo not drawn) [Example 28a, 5,6,7-trichloro-8-propoxy-2-(trifluoromethyl)-2H-chromene-3-carboxylic acid]",–,43.6 µM and 41.3 µM
"CCCCOc1c(Cl)c(Cl)c(Cl)c2c1OC(C(F)(F)F)C(C(=O)O)=C2 (stereo not drawn) [Example 28b, 8-butoxy-5,6,7-trichloro-2-(trifluoromethyl)-2H-chromene-3-carboxylic acid]",–,41.7 µM
"COc1c(Cl)c(Cl)c(C)c2c1OC(C(F)(F)F)C(C(=O)O)=C2 (stereo not drawn) [Example 29, 6,7-dichloro-8-methoxy-5-methyl-2-(trifluoromethyl)-2H-chromene-3-carboxylic acid]",–,> 100 µM and 217 µM
"COc1c(Cl)c(Cl)c(Br)c2c1OC(C(F)(F)F)C(C(=O)O)=C2 (stereo not drawn) [Example 30, 5-bromo-6,7-dichloro-8-methoxy-2-(trifluoromethyl)-2H-chromene-3-carboxylic acid]",–,193 µM and > 100 µM
"CCOc1cc(C)cc2c1OC(C(F)(F)F)C(C(=O)O)=C2 (stereo not drawn) [Example 31, 8-ethoxy-6-methyl-2-(trifluoromethyl)-2H-chromene-3-carboxylic acid]",–,> 500 µM
"Cc1cc(C)c2c(c1Cl)C=C(C(=O)O)C(C(F)(F)F)O2 (stereo not drawn) [Example 33, 5-chloro-6,8-dimethyl-2-(trifluoromethyl)-2H-chromene-3-carboxylic acid]",–,8.28 µM and 6.09 µM and 43.4 µM and 18.5 µM
"CC(C)(C)c1cc(Cl)c2c(c1)C=C(C(=O)O)C(C(F)(F)F)O2 (stereo not drawn) [Example 35, 6-tert-butyl-8-chloro-2-(trifluoromethyl)-2H-chromene-3-carboxylic acid]",–,2.87 µM
"C=C(C)C#Cc1cc(Cl)cc2c1OC(C(F)(F)F)C(C(=O)O)=C2 (stereo not drawn) [Example 36, 6-chloro-8-(3-methylbut-3-en-1-ynyl)-2-(trifluoromethyl)-2H-chromene-3-carboxylic acid]",–,78.5 µM and 52.3 µM
"C=C(c1ccccc1)c1ccc2c(c1)OC(C(F)(F)F)C(C(=O)O)=C2 (stereo not drawn) [Example 37a, 7-(1-phenylvinyl)-2-(trifluoromethyl)-2H-chromene-3-carboxylic acid]",–,69.4 µM
"CC(c1ccccc1)c1ccc2c(c1)OC(C(F)(F)F)C(C(=O)O)=C2 (stereo not drawn) [Example 37b, 7-(1-phenylethyl)-2-(trifluoromethyl)-2H-chromene-3-carboxylic acid]",–,> 100 µM
"CC(C)CN(C)c1c(Cl)cc2c(c1Cl)OC(C(F)(F)F)C(C(=O)O)=C2 (stereo not drawn) [Example 38a, 6,8-dichloro-7-[isobutyl(methyl)amino]-2-(trifluoromethyl)-2H-chromene-3-carboxylic acid]",–,< 0.137 µM
"CNc1c(Cl)cc2c(c1Cl)OC(C(F)(F)F)C(C(=O)O)=C2 (stereo not drawn) [Example 38b, 6,8-dichloro-7-(methylamino)-2-(trifluoromethyl)-2H-chromene-3-carboxylic acid]",–,> 100 µM
"CC(C)CNc1c(Cl)cc2c(c1Cl)OC(C(F)(F)F)C(C(=O)O)=C2 (stereo not drawn) [Example 38c, 6,8-dichloro-7-(isobutylamino)-2-(trifluoromethyl)-2H-chromene-3-carboxylic acid]",–,< 0.137 µM
"NS(=O)(=O)c1ccc(C#Cc2cc(Cl)cc3c2OC(C(F)(F)F)C(C(=O)O)=C3)cc1 (stereo not drawn) [Example 39b, 8-{[4-(aminosulfonyl)phenyl]ethynyl}-6-chloro-2-(trifluoromethyl)-2H-chromene-3-carboxylic acid]",–,3.93 µM
"O=C(O)C1=Cc2cc(Br)c(Cc3ccccc3)cc2OC1C(F)(F)F (stereo not drawn) [Example 41, 7-benzyl-6-bromo-2-(trifluoromethyl)-2H-chromene-3-carboxylic acid]",–,14.6 µM and 12.9 µM
"Cc1cc2c(cc1Cc1ccccc1)OC(C(F)(F)F)C(C(=O)O)=C2 (stereo not drawn) [Example 42a, 7-benzyl-6-methyl-2-(trifluoromethyl)-2H-chromene-3-carboxylic acid]",–,28.7 µM and 25.2 µM and 14.7 µM
"CCc1cc2c(cc1Cc1ccccc1)OC(C(F)(F)F)C(C(=O)O)=C2 (stereo not drawn) [Example 42b, 7-benzyl-6-ethyl-2-(trifluoromethyl)-2H-chromene-3-carboxylic acid]",–,> 100 µM

Compound,melting point [°C],IC50 (COX-1)
"CCCc1cc2c(cc1Cc1ccccc1)OC(C(F)(F)F)C(C(=O)O)=C2 (stereo not drawn) [Example 42c, 7-benzyl-6-propyl-2-(trifluoromethyl)-2H-chromene-3-carboxylic acid]",–,> 100 µM
"CCCCc1cc2c(cc1Cc1ccccc1)OC(C(F)(F)F)C(C(=O)O)=C2 (stereo not drawn) [Example 42d, 7-benzyl-6-butyl-2-(trifluoromethyl)-2H-chromene-3-carboxylic acid]",–,58.3 µM
"CSc1cc(Cl)cc2c1OC(C(F)(F)F)C(C(=O)O)=C2 (stereo not drawn) [Example 44, 6-chloro-8-(methylthio)-2-(trifluoromethyl)-2H-chromene-3-carboxylic acid]",–,0.185 µM and 0.12 µM and < 0.137 µM
"Cc1cc(Br)c2c(c1)C=C(C(=O)O)C(C(F)(F)F)N2 (stereo not drawn) [Example 46, 8-Bromo-6-methyl-2-(trifluoromethyl)-1,2-dihydroquinoline-3-carboxylic acid]",–,> 100 µM
"Cc1cc(Cl)cc2c1NC(C(F)(F)F)C(C(=O)O)=C2 (stereo not drawn) [Example 47, 6-chloro-8-methyl-2-(trifluoromethyl)-1,2-dihydroquinoline-3-carboxylic acid]",–,> 500 µM
"O=C(O)C1=Cc2cc(-c3ccc(F)cc3)ccc2NC1C(F)(F)F (stereo not drawn) [Example 48, 6-(4-fluorophenyl)-2-(trifluoromethyl)-1,2-dihydroquinoline-3-carboxylic acid]",–,42.7 µM
"Cc1cc2c(c(C)c1Cl)C=C(C(=O)O)C(C(F)(F)F)O2 (stereo not drawn) [Example 100, 6-chloro-5,7-dimethyl-2-(trifluoromethyl)-2H-chromene-3-carboxylic acid]",–,30.2 µM and 29.4 µM
"Cc1cc2c(c(C)c1Cl)C=C(C(=O)O)[C@H](C(F)(F)F)O2 [Example 101, (2R)-6-chloro-5,7-dimethyl-2-(trifluoromethyl)-2H-chromene-3-carboxylic acid]",–,> 100 µM and 430 µM and > 500 µM
Cc1c(C)c2c(c(C)c1Cl)C=C(C(=O)O)C(C(F)(F)F)O2 (stereo not drawn) [Example 104],–,6.75 µM and 12.1 µM
"Cc1cc(Cl)c(C)c2c1OC(C(F)(F)F)C(C(=O)O)=C2 (stereo not drawn) [Example 105, 6-chloro-5,8-dimethyl-2-(trifluoromethyl)-2H-chromene-3-carboxylic acid]",–,3.32 µM and 2 µM
"CCC(C)(C)c1ccc2c(c1)OC(C(F)(F)F)C(C(=O)O)=C2 (stereo not drawn) [Example 106, 7-tert-pentyl-2-(trifluoromethyl)-2H-chromene-3-carboxylic acid]",–,> 100 µM and 93 µM
"CCCC(C)(C)c1ccc2c(c1)OC(C(F)(F)F)C(C(=O)O)=C2 (stereo not drawn) [Example 108, 7-(1,1-dimethylbutyl)-2-(trifluoromethyl)-2H-chromene-3-carboxylic acid]",–,> 100 µM and 169 µM
"CCCCC(C)(C)c1ccc2c(c1)OC(C(F)(F)F)C(C(=O)O)=C2 (stereo not drawn) [Example 109, 7-(1,1-dimethylpentyl)-2-(trifluoromethyl)-2H-chromene-3-carboxylic acid]",–,0.413 µM and < 0.137 µM
"CCCCC(C)(C)c1cc2c(cc1Cl)C=C(C(=O)O)C(C(F)(F)F)O2 (stereo not drawn) [Example 110, 6-chloro-7-(1,1-dimethylpentyl)-2-(trifluoromethyl)-2H-chromene-3-carboxylic acid]",–,16.1 µM and 13.1 µM
"CCCC(C)(C)c1cc2c(cc1Cl)C=C(C(=O)O)C(C(F)(F)F)O2 (stereo not drawn) [Example 111, 6-chloro-7-(1,1-dimethylbutyl)-2-(trifluoromethyl)-2H-chromene-3-carboxylic acid]",–,9.16 µM and 9.17 µM
"COc1cc2c(cc1C(C)(C)C)OC(C(F)(F)F)C(C(=O)O)=C2 (stereo not drawn) [Example 112, 7-tert-butyl-6-methoxy-2-(trifluoromethyl)-2H-chromene-3-carboxylic acid]",–,> 100 µM
"C=C(C)c1cc2c(cc1Cl)C=C(C(=O)O)C(C(F)(F)F)O2 (stereo not drawn) [Example 113, 6-chloro-7-isopropenyl-2-(trifluoromethyl)-2H-chromene-3-carboxylic acid]",–,> 100 µM
"CC(C)(C=O)c1ccc2c(c1)OC(C(F)(F)F)C(C(=O)O)=C2 (stereo not drawn) [Example 114, 7-(1,1-dimethyl-2-oxoethyl)-2-(trifluoromethyl)-2H-chromene-3-carboxylic acid]",–,63.9 µM
"CC(C)(C(=O)O)c1cc2c(cc1Cl)C=C(C(=O)O)C(C(F)(F)F)O2 (stereo not drawn) [Example 115, 7-(1-carboxy-1-methylethyl)-6-chloro-2-(trifluoromethyl)-2H-chromene-3-carboxylic acid]",–,> 100 µM
"COCC(C)(C)c1cc2c(cc1Cl)C=C(C(=O)O)C(C(F)(F)F)O2 (stereo not drawn) [Example 116, 6-chloro-7-(2-methoxy-1,1-dimethylethyl)-2-(trifluoromethyl)-2H-chromene-3-carboxylic acid]",–,> 100 µM
"CC(C)(C#N)c1cc2c(cc1Cl)C=C(C(=O)O)C(C(F)(F)F)O2 (stereo not drawn) [Example 118, 6-chloro-7-(1-cyano-1-methylethyl)-2-(trifluoromethyl)-2H-chromene-3-carboxylic acid]",–,> 100 µM
"O=C(O)C1=Cc2c(cc3c(c2Cl)OCO3)OC1C(F)(F)F (stereo not drawn) [Example 119, 9-chloro-6-(trifluoromethyl)-6H-[1,3]dioxolo[4,5-g]chromene-7-carboxylic acid]",–,> 500 µM

# From patent US20050148627A1, “Benzopyran compounds for use in the treatment and prevention of inflammation related conditions” (priority 2003, published 2005)
